Test results from patent US4833156A, “Treating amnesia with a pyrrolidone derivative” (Kirin Beer Kabushiki Kaisha, priority 1987, dated 1989).

Tests used:
[1] = tested on: scopolamine induced amnesia in rats; test: Rat delayed-matching test (scopolamine-induced amnesia); format: in vivo, rat (SD, male, 150 to 300 g); details: for remission of scopolamine induced amnesia: oral, 20 min before test, (-)-scopolamine hydrochloride 0.06 mg/kg s.c., delay times 0.1, 4, 16, 32 s, FIG. 3 and FIG. 4
Source text: An apparatus equipped with two lever switches on the respective sides of the front face of the inside of an operant experimental box (25×31×33 cm), red lamps just above respective levers and a white lamp at a further upper position was used for the experiment. A rat bred under restricted feeding (SD, male, 150 to 300 g) was placed in the apparatus. Either one of the red lamps arranged on the right and left sides was lit for 5 seconds, and, at a specific time (delayed time) after it was turned off, the white lamp at the center was lit. The system of the apparatus was so set that if the lever which was at the side of the red lamp having lit was pushed, a feed pellet (ca. 50 mg) was given as a correct choice, and if another lever was pushed no pellet was given as an incorrect choice. After the training had been conducted to ensure that, in the test of delay time being 0.1 sec, the correct choice rate was maintained at the level of 80% or more for three consecutive days, the test was conducted. In the test, delay times were set at 0.1, 4, 16 and 32 seconds, and, at each of the delay times, 6 runs were conducted at random (24 runs in total, 1 run/minute). […] N-(4'-chlorobenzenesulfonyl)-2-pyrrolidone and aniracetam were administered orally in the form of suspensions in 0.3% Tween 80 at 20 minutes before test.

[2] = tested on: proline specific endopeptidase; test: Inhibition of proline specific endopeptidase activity (residual peptidase activity); format: biochemical; details: inhibitor concentration not given
Description: The inhibitory effects of the compounds represented by the formula (I) were determined by measuring the residual peptidase activity. The experimental procedure was agreed with the method by Tadashi Yoshimoto and Daisuke Tsuru: Tanpakushitsu, Kakusan and Koso, 29 (2), 127 (1984).

ddY male mice = test: Acute toxicity, oral administration to mice; format: in vivo, mouse (ddY; details: 7 week old, result in words
Source text: (§1) Acute toxicity was evaluted by oral administration of the compounds to ddY male mice (7 week old).

[3] = Acute toxicity, oral administration to mice; format: in vivo, mouse (ddY; details: mouse, in vivo, ddY male mice, 7 week old
Source text: as §1

[4] = tested on: cycloheximide (CXM)-induced amnesia in mice; test: Mouse step-down test (cycloheximide-induced amnesia); format: in vivo, mouse (ddY, male, 5 to 6 week old); details: conclusion for the mouse step-down test
Description: The test was carried out in accordance with the method described by Nabeshima et al.: Psychopharmacology, (1986) 89, 334-337. That is, a wooden platform (4×4×4 cm) was placed in the center on a floor of a stainless steel grid (30×30 cm), and the whole apparatus was surrounded with clear acrylic resin plates. In acquisition test, a mouse (ddY, male, 5 to 6 week old) was placed on the platform, and electric stimulus was applied for 20 seconds immediately after the mouse stepped down on the grid. Then the mouse was taken out of the apparatus and cycloheximide hydrochloride (30 mg/kg) was administered subcutaneously in order to induce amnesia. In the retention test, the mouse was again placed on the platform, and the time before the mouse stepped down on the grid was measured as the step-down latency. N-(4'-chlorobenzenesulfonyl)-2-pyrrolidone and aniracetam were individually suspended in 0.3% Tween 80 and administered orally at 20 minutes before acquisition test.

Compound | remission of scopolamine induced amnesia [1] | Residual Activity [2] | anti-amnestic effect compared with aniracetam ([1]; conclusion for the rat delayed-matching test) | safety (ddY male mice) | LD50 [3] [mg/kg] | anti-amnestic effect compared with aniracetam [4]
COc1ccc(C(=O)N2CCCC2=O)cc1 [Aniracetam, aniracetam, reference compound] | did not remitted at all scopolamine induced amnesia | 89.5 | – | – | – | –
Cc1ccc(S(=O)(=O)N2CCCC2=O)cc1 [Synthetic Example 1,2, N-(4'-toluenesulfonyl)-2-pyrrolidone] | – | 47.4 | – | – | – | –
O=C1CCCN1S(=O)(=O)c1ccc(Cl)cc1 [Synthetic Example 3,4, N-(4'-chlorobenzenesulfonyl)-2-pyrrolidone] | showed remission of scopolamine induced amnesia at several dosages and delay times | 51.3 | exhibited an anti-amnestic effect and was more effective than aniracetam | High level of safety | ≥ 2000 | exhibited an anti-amnestic effect and was more effective than aniracetam
O=C1CCCN1S(=O)(=O)c1ccccc1 [Synthetic Example 5,6, N-benzenesulfonyl-2-pyrrolidone] | – | 51.3 | – | – | – | –
